The source of these data is ChEMBL document CHEMBL1201862, “PubChem BioAssay data set” (2004).

Test systems include ACHN; SK-MEL-28; U-251; SF-295; UACC-62; HCT-15; PC-3; OVCAR-3; A498; MCF7; 786-0; NCI-H460; SK-OV-3; A549; HT-29; CCRF-CEM; MDA-MB-435; Malme-3M; SR; RXF 393.
Holding throughout (experiment): NCI tumour cell line growth inhibition, 48 h

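Each compound was tested at five concentrations against cells in 96-well plates for 48 hours. The concentration for 50% growth inhibition is given as GI50.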 Active and inactive are the calls of the source. No stated cut-off is given here; in the data, active = GI50 up to about 1.1 µM and inactive = higher. Where only a bound is given, the exact number is not on record here.

For the compound `Cc1ccsc1C(=S)Nc1ccc(Cl)c(C(=O)OC(C(C)C)C(C)C)c1`, the GI50 is 25.9 µM (inactive) in the assay on ACHN; 27.1 µM (inactive) in the assay with SK-MEL-28; 24.4 µM (inactive) in the assay on U-251; 21.9 µM (inactive) in the assay with SF-295; 21 µM (inactive) with UACC-62; 23.6 µM in the assay on HCT-15. Besides, the GI50 is 8.53 µM (inactive) with PC-3; 14 µM (inactive) with OVCAR-3; 27.2 µM (inactive) in the assay on A498; 16.1 µM (inactive) with MCF7; 19.8 µM (inactive) in the assay on 786-0; 23.7 µM (inactive) in the assay with NCI-H460. Besides, the GI50 is 28.2 µM (inactive) with SK-OV-3; 12.2 µM (inactive) with A549; 17.4 µM (inactive) with HT-29; 5.62 µM (inactive) in the assay on CCRF-CEM; 17.7 µM (inactive) in the assay with MDA-MB-435.
Turning to `CCCCCCCCCC(=O)OCC1OC(n2cc(F)c(=O)[nH]c2=O)C(NC(=O)OCc2ccccc2)C(OC(=O)CCCCCCCCC)C1O` (configuration not stated), the GI50 is 24.2 µM (inactive) with Malme-3M; 58.7 µM (inactive) with ACHN; 42.1 µM (inactive) with SK-MEL-28; 15 µM (inactive) with U-251; 40 µM (inactive) with SF-295; 44.2 µM (inactive) with UACC-62. Further, the GI50 was 35.2 µM in the assay on HCT-15; 21.2 µM (inactive) with OVCAR-3; 25.1 µM (inactive) with A498; 18.9 µM (inactive) in the assay on 786-0; > 10 µM (inactive) in the assay with NCI-H460; > 100 µM (inactive) with SK-OV-3. Besides, the GI50 with A549 was 26.1 µM (inactive); in the assay with HT-29, 16.9 µM (inactive); with SR, 17.5 µM (inactive); with RXF 393, 18.8 µM (inactive); with CCRF-CEM it was 21.8 µM (inactive).
As to `Cc1cc2nc3c(C(OC4OC(CO)C(O)C(O)C4O)C(O)CO)nn(-c4ccc(F)cc4)c3nc2cc1C` (configuration not stated), the GI50 in the assay with Malme-3M, in the assay with ACHN, in the assay with SK-MEL-28, with U-251, in the assay on SF-295 and in the assay on UACC-62 was > 100 µM (inactive) throughout. The GI50 with HCT-15 is above 100 µM; with OVCAR-3 it was > 100 µM (inactive); in the assay with A498 it was > 100 µM (inactive); in the assay with 786-0, > 100 µM (inactive); in the assay with NCI-H460 it was > 100 µM (inactive); in the assay with SK-OV-3, > 100 µM (inactive). Also, the GI50 with HT-29, in the assay with SR, in the assay with RXF 393 and with CCRF-CEM was > 100 µM (inactive) each time.
Regarding `O=C1CCCc2cc3c(cc21)CCC3C(=O)O` (configuration not stated), the GI50 in the assay with Malme-3M, in the assay on ACHN, in the assay with SK-MEL-28, in the assay with U-251, with SF-295 and with UACC-62 was > 100 µM (inactive) in each case. In addition, the GI50 in the assay on HCT-15 is above 100 µM; in the assay with PC-3, > 100 µM (inactive); in the assay with MCF7, > 100 µM (inactive); with 786-0 it was > 100 µM (inactive); with NCI-H460, > 100 µM (inactive); with SK-OV-3 it was > 100 µM (inactive). In addition, the GI50 in the assay with A549, with HT-29, in the assay on SR, in the assay on RXF 393 and with CCRF-CEM was > 100 µM (inactive) each time.
In the case of `C[C@@]1(O)CC[C@]2(C)C3CCCC3[C@H]12` (some centres not stated), the GI50 in the assay on Malme-3M, in the assay on ACHN, in the assay with SK-MEL-28, in the assay with U-251, in the assay with SF-295 and in the assay with UACC-62 was > 100 µM (inactive) in each case. In addition, the GI50 in the assay on HCT-15 is above 100 µM; in the assay on OVCAR-3 it was > 100 µM (inactive); with A498, > 100 µM (inactive); with 786-0, > 100 µM (inactive); with NCI-H460 it was > 100 µM (inactive); with SK-OV-3, > 100 µM (inactive). Moreover, the GI50 in the assay on A549, with HT-29, in the assay with SR, in the assay on RXF 393 and in the assay on CCRF-CEM was > 100 µM (inactive) in each case.
`CN(C)C(=S)/N=c1\ssc(=S)n1Cc1ccncc1`: the GI50 in the assay with Malme-3M was 16.3 µM (inactive); in the assay with ACHN it was 29.8 µM (inactive); in the assay with SK-MEL-28, 35.1 µM (inactive); in the assay with U-251, 14.7 µM (inactive); in the assay on SF-295, 29.8 µM (inactive); with UACC-62 it was 10 µM (inactive). In addition, the GI50 with HCT-15 was 17.5 µM; in the assay with OVCAR-3 it was 13.3 µM (inactive); in the assay with A498 it was 36.2 µM (inactive); in the assay with 786-0, 21.7 µM (inactive); in the assay on NCI-H460, 13.8 µM (inactive); in the assay on SK-OV-3, 25.2 µM (inactive). Moreover, the GI50 with A549 is 33.3 µM (inactive); with SR, 6.28 µM (inactive); in the assay with RXF 393 it was 25.5 µM (inactive); with CCRF-CEM it was 5.81 µM (inactive).
On to `O=[N+]([O-])c1ccc2nc(/C(=N/Nc3ccccc3)C(O)c3ccc(C(O)/C(=N\Nc4ccccc4)c4nc5ccc([N+](=O)[O-])cc5nc4O)cc3)cnc2c1` (configuration not stated), for which the GI50 in the assay on Malme-3M is > 100 µM (inactive); with ACHN, 18 µM (inactive); with SK-MEL-28, > 100 µM (inactive); in the assay on SF-295, > 100 µM (inactive); in the assay on UACC-62 it was 36 µM (inactive); in the assay with OVCAR-3, > 100 µM (inactive). Moreover, the GI50 in the assay with A498 was 32.1 µM (inactive); with 786-0, > 100 µM (inactive); with NCI-H460 it was 18.1 µM (inactive); in the assay on SK-OV-3 it was > 100 µM (inactive); in the assay on A549, 48.5 µM (inactive); in the assay with HT-29 it was > 100 µM (inactive). The GI50 in the assay with SR was 33.7 µM (inactive); with RXF 393 it was > 100 µM (inactive); with CCRF-CEM it was 39.6 µM (inactive).
On to `O=C(c1ccccc1)C1(Br)S(=O)(=O)OCCOS1(=O)=O`, for which the GI50 in the assay on Malme-3M, with ACHN, in the assay on SK-MEL-28, with U-251, in the assay with SF-295 and in the assay with UACC-62 was > 100 µM (inactive) in each case. Moreover, the GI50 in the assay on HCT-15 was above 100 µM; in the assay with OVCAR-3 it was > 100 µM (inactive); in the assay on A498 it was > 100 µM (inactive); in the assay with 786-0 it was > 100 µM (inactive); in the assay with NCI-H460, > 100 µM (inactive); in the assay on SK-OV-3 it was > 100 µM (inactive). Further, the GI50 with A549, with HT-29, in the assay on SR, in the assay on RXF 393 and in the assay on CCRF-CEM was > 100 µM (inactive) throughout.
Consider `O=C(NC1C2CC3CC(C2)CC1C3)/C(Cl)=C1/Sc2ccccc2NC1=O` (configuration not stated), for which the GI50 is > 100 µM (inactive) in the assay on Malme-3M; > 95.9 µM (inactive) in the assay with ACHN; > 100 µM (inactive) in the assay on SK-MEL-28; > 100 µM (inactive) with U-251; > 100 µM (inactive) in the assay with SF-295; > 89.5 µM (inactive) with UACC-62. For the same compound, the GI50 was above 78.9 µM in the assay on HCT-15; > 100 µM (inactive) in the assay with OVCAR-3; > 100 µM (inactive) in the assay on A498; > 100 µM (inactive) in the assay with 786-0; > 89.9 µM (inactive) with NCI-H460; > 100 µM (inactive) in the assay with A549. In addition, the GI50 in the assay on HT-29 was > 100 µM (inactive); in the assay with SR, 44.5 µM (inactive); in the assay with RXF 393, > 100 µM (inactive); with CCRF-CEM, 29.5 µM (inactive).
`Cc1ccc(/N=C2/S/C(=C3/CCC=C3N3CCOCC3)N(c3ccc(Cl)cc3)/C2=N/c2ccc(C)cc2)cc1`: the GI50 was > 100 µM (inactive) in the assay on Malme-3M; > 100 µM (inactive) in the assay on ACHN; > 100 µM (inactive) in the assay with SK-MEL-28; > 100 µM (inactive) in the assay with U-251; > 100 µM (inactive) in the assay on UACC-62; above 100 µM with HCT-15. Besides, the GI50 with PC-3, in the assay on A498, in the assay with MCF7, in the assay on 786-0, in the assay with NCI-H460 and in the assay with A549 was > 100 µM (inactive) each time. Also, the GI50 with HT-29, with SR and with RXF 393 was > 100 µM (inactive) each time.
Regarding `CC[C@]1(Cc2ccc(OC)c(OC)c2)[C@@H]2C[C@@H](C(=O)OC)ON2O[C@H](OC2CCCC2(c2ccccc2)c2ccccc2)[C@@H]1OC(C)=O` (some centres not stated), the GI50 in the assay with ACHN is > 100 µM (inactive); in the assay on SK-MEL-28, > 100 µM (inactive); with U-251 it was > 100 µM (inactive); with SF-295, > 100 µM (inactive); in the assay on UACC-62, > 100 µM (inactive); in the assay on HCT-15, above 100 µM. Besides, the GI50 with OVCAR-3, with MCF7, in the assay with 786-0, in the assay with NCI-H460, with SK-OV-3 and with A549 was > 100 µM (inactive) throughout. Moreover, the GI50 is > 100 µM (inactive) with HT-29; 66.7 µM (inactive) in the assay with SR; > 100 µM (inactive) in the assay with RXF 393; > 100 µM (inactive) with CCRF-CEM; > 100 µM (inactive) in the assay with MDA-MB-435.
Take `COc1cc2oc(-c3ccc(O)cc3)cc(=O)c2c(OC)c1O`: the GI50 in the assay with Malme-3M was > 100 µM (inactive); in the assay with ACHN, 32.7 µM (inactive); in the assay on SK-MEL-28 it was > 100 µM (inactive); in the assay on U-251 it was 38.9 µM (inactive); with SF-295 it was 62.5 µM (inactive); with UACC-62, 99.5 µM (inactive). In addition, the GI50 with HCT-15 is 92.7 µM; with OVCAR-3, 80.9 µM (inactive); with MCF7 it was > 100 µM (inactive); with 786-0, 36 µM (inactive); with NCI-H460 it was 45.7 µM (inactive); in the assay on SK-OV-3, 30.5 µM (inactive). The GI50 is 89.9 µM (inactive) with A549; > 100 µM (inactive) with HT-29; 29 µM (inactive) in the assay on RXF 393; > 100 µM (inactive) in the assay with CCRF-CEM; > 100 µM (inactive) with MDA-MB-435.
